The source made the active and inactive calls. How the calls were made is not given here.
Each compound was assayed against Influenza A virus M2 proton channel (A/TW/4845/1999 H1N1) (assay: NMR binding screen, influenza A virus M2 proton channel, Kd (AID 1549)). Conditions: M2 protein.

SMILES | Kd
O=C1C[C@@H](c2ccc(O)cc2)Oc2cc(O)cc(O)c21 | > 4 mM (inactive)
Cn1ncc(C(=O)O)c1-c1ccccc1 | > 4 mM (inactive)
CSc1nnc(-c2ccccc2NC(C)=O)o1 | > 4 mM (inactive)
O=C(O)Cn1c(=O)sc2ccccc21 | > 4 mM (inactive)
CC(=O)c1c(C)nc(-c2ccc(F)cc2)n1O | > 4 mM (inactive)
CNc1nc(C)nc(-n2nc(C)cc2C)n1 | > 4 mM (inactive)
COc1ccc2c(c1)OC/C(=C\c1ccc(OC)c(O)c1)C2=O | > 4 mM (inactive)
O=C(Nc1ncccn1)c1cccc(F)c1 | > 4 mM (inactive)
O=C(O)c1scc2c1CCCC2 | > 4 mM (inactive)
OCc1ncoc1-c1ccccc1 | > 4 mM (inactive)
OCc1ccc(N2CCOCC2)nc1 | > 4 mM (inactive)
Cc1nnc(SCc2ccccc2)[nH]c1=O | > 4 mM (inactive)
CSc1nnc2ccc(-c3cccnc3)nn12 | > 4 mM (inactive)
CC(=O)c1cccc(NC(=O)C=C(C)C)c1 | > 4 mM (inactive)
Cc1nn2c(nc1=O)SCC2(O)c1ccccc1 (stereo not drawn) | > 4 mM (inactive)
Cc1cc(C(=O)NCc2cccnc2)cs1 | > 4 mM (inactive)
O=C(O)CNC(=O)c1ccccc1Cl | > 4 mM (inactive)
Cc1cc(C(=O)Nc2cccnc2)no1 | > 4 mM (inactive)
Cc1c(C(=O)Nc2ccncc2)oc2c1C(=O)CC(C)(C)C2 | > 4 mM (inactive)
NC(=O)C1CCN(C(=O)c2ccco2)CC1 | > 4 mM (inactive)
O=C1CSC(=O)N1CNc1ccccc1 | > 4 mM (inactive)
C(=N\n1cnnc1)/c1cccs1 | > 4 mM (inactive)
Cc1noc(C)c1CSc1nc2ccccc2[nH]1 | > 4 mM (inactive)
Cc1nnc(C)n1/N=C/c1cccs1 | > 4 mM (inactive)
O=C1CSC(=Nc2ccccc2)N1 | > 4 mM (inactive)

SMILES | Kd
O=C(OCc1c(Cl)cccc1Cl)c1cnccn1 | > 4 mM (inactive)
CC(=O)N1CC2(C)CN(C(C)=O)CC(C)(C1)C2O (stereo not drawn) | > 4 mM (inactive)
Cc1ncc(C(=O)O)c(-c2ccccc2)n1 | > 4 mM (inactive)
CC(=O)Nc1cc(C(N)=O)cc(C(N)=O)c1 | > 4 mM (inactive)
O=c1cc(O)nc(SCc2ccccc2)[nH]1 | > 4 mM (inactive)
Nc1ccc(Cc2ccncc2)cc1 | > 4 mM (inactive)
Cc1[nH]c2ccccc2c(=O)c1CO | > 4 mM (inactive)
CCC(=O)Nc1cc(C(C)C)c(O)cc1C | > 4 mM (inactive)
O=C(O)CCc1ccc2c(c1)OCO2 | > 4 mM (inactive)
Cc1nnc(Nc2ccc(S(N)(=O)=O)cc2)[nH]c1=O | > 4 mM (inactive)
C/C=C(/C)C(=O)O[C@@H]1Cc2c(ccc3ccc(=O)oc23)OC1(C)C | > 4 mM (inactive)
COc1c2c(cc3occ(-c4ccc5c(c4)OCO5)c(=O)c13)OC(C)(C)C=C2 | > 4 mM (inactive)
COc1ccc(/C=C2\SC(N)=NC2=O)cc1 | > 4 mM (inactive)
Cn1c(=O)[nH]c(=O)c2c1ncn2CCN1CCCCC1 | > 4 mM (inactive)
CCOc1ccc(-c2n[nH]c(=S)n2C)cc1 | > 4 mM (inactive)
C(=Nn1cnnc1)c1ccccc1 | > 4 mM (inactive)
COc1ccc(NC(=O)CSc2nccc(=O)[nH]2)cc1 | > 4 mM (inactive)
Cc1cc(O)c(C)c(O)c1C(=O)O | > 4 mM (inactive)
CN1CCC(N2CCN(C)CC2)CC1 | > 4 mM (inactive)
Cc1ccc(-n2ncc(C#N)c2/N=C/N(C)C)cc1 | > 4 mM (inactive)
NCc1ccc(-c2ccccn2)s1 | > 4 mM (inactive)
CC[C@H]1CN2CCc3cc(OC)c(OC)cc3C2C[C@@H]1CC1NCCc2cc(OC)c(OC)cc21 (stereo partly drawn) | > 4 mM (inactive)
OCc1ccc2c(c1)OCCO2 | > 4 mM (inactive)
Cc1cc(=O)[nH]c2ccccc12 | > 4 mM (inactive)
Cc1nn2c(-c3ccco3)nnc2c2ccccc12 | > 4 mM (inactive)

SMILES | Kd
Cc1noc(C)c1C(=O)NCc1cccs1 | > 4 mM (inactive)
CCc1c(C)[nH]c(=S)c(C(N)=O)c1C | > 4 mM (inactive)
CC(=O)N1CC2(C)CN(C(C)=O)CC(C)(C1)C2 | > 4 mM (inactive)
O=C(Nc1ccccc1)Nc1ccccc1 | > 4 mM (inactive)
O=C(NCc1ccccc1Br)c1ccco1 | > 4 mM (inactive)
O=C(c1ccncc1)N1CCN(C(=O)c2ccco2)CC1 | > 4 mM (inactive)
CCOC(=O)c1nc2ccccc2c(=O)n1N | > 4 mM (inactive)
COC(=O)c1c(C)cc(OC(=O)c2c(C)cc(O)c(C=O)c2O)c(C)c1O | > 4 mM (inactive)
CSc1ccccc1NC(=O)c1c(C)noc1C | > 4 mM (inactive)
Cn1c(=O)cc(O)c2ccccc21 | > 4 mM (inactive)
COc1ccc(-c2coc3cc(O)ccc3c2=O)c(O)c1O | > 4 mM (inactive)
NC(=O)c1ccc(NC(=O)C2CC2)cc1 | > 4 mM (inactive)
Cc1cc(NC(=O)c2cccc(N3C(=O)CCC3=O)c2)no1 | > 4 mM (inactive)
NN1C(=O)/C(=C/c2ccc(O)c(O)c2)SC1=S | > 4 mM (inactive)
O=[N+]([O-])c1cccc2c1nnn2C(CO)OCCO (stereo not drawn) | > 4 mM (inactive)
CC(C)(C)C(=O)N1CCCC1C(=O)O (stereo not drawn) | > 4 mM (inactive)
Clc1ccccc1-c1nc(-c2cccnc2)no1 | > 4 mM (inactive)
COc1ccc(Cl)cc1NC(=O)c1ccco1 | > 4 mM (inactive)
CC1CCN(C(=O)c2ccc3c(c2)OCCO3)CC1 | > 4 mM (inactive)
Cc1cccc(-c2nnc(-c3ccc(N)cc3)o2)c1 | > 4 mM (inactive)
OC1COCc2nc3ccccc3n2C1 (stereo not drawn) | > 4 mM (inactive)
Nc1ccccc1C(=O)N1CCOCC1 | > 4 mM (inactive)
O=C1N=c2ccccc2=C1c1[nH]c(=S)[nH]c1O | > 4 mM (inactive)
COc1cc2nc(N3CCNCC3)nc(N)c2cc1OC | > 4 mM (inactive)
Cc1ccccc1OCC(=O)O | > 4 mM (inactive)

SMILES | Kd
O=S1(=O)CCC(NC(=S)Nc2ccc(O)cc2)C1 (stereo not drawn) | > 4 mM (inactive)
CCCCCCCCCCCCCCC(C(=O)OC)C(O)(CC(=O)OC)C(=O)OC (stereo not drawn) | > 4 mM (inactive)
CC(=O)C1CC[C@H]2C3CC[C@H]4C[C@H](O)CC[C@]4(C)C3CC[C@]12C (stereo partly drawn) | > 4 mM (inactive)
Nc1ncnc(NCCO)c1[N+](=O)[O-] | > 4 mM (inactive)
Nc1ncnc2c1ncn2[C@@H]1O[C@H](CO)[C@@H](O)[C@H]1O | > 4 mM (inactive)
CC(C)=CC(=O)Nc1ccccc1C(N)=O | > 4 mM (inactive)
Nc1c2c3c(sc2nc(=O)n1N)CCCC3 | > 4 mM (inactive)
Cn1c(=O)c2c(ncn2CCN)n(C)c1=O | > 4 mM (inactive)
O=[N+]([O-])c1c[n+]([O-])n(-c2ccccc2)n1 | > 4 mM (inactive)
COc1ccc(/C=N/n2cn[nH]c2=S)cc1 | > 4 mM (inactive)
Cn1ncc(SCc2ccco2)c(Cl)c1=O | > 4 mM (inactive)
O=C1CSC(=Nc2ccc(O)cc2)N1 | > 4 mM (inactive)
NC1=NC(=O)/C(=C\c2ccccc2)S1 | > 4 mM (inactive)
Cc1oc(-c2ccccc2)nc1CC(=O)O | > 4 mM (inactive)
Cc1cc(=O)oc2cc3c(cc12)OCCO3 | > 4 mM (inactive)
O=c1c2c(nc3nc(Cc4ccccc4)[nH]n13)CCC2 | > 4 mM (inactive)
Cn1c(=O)[nH]c(=O)c2nsnc21 | > 4 mM (inactive)
O=C(Cn1cnc2ccccc2c1=O)N1CCOCC1 | > 4 mM (inactive)
CCSc1nc(N)c(NC(=O)c2ccco2)c(=O)[nH]1 | > 4 mM (inactive)
Nc1ccc(S(=O)(=O)N2CCCCC2)cc1 | > 4 mM (inactive)
Cc1c(/C=N/O)cnn1C | > 4 mM (inactive)
O=C(Nc1nnc(-c2ccncc2)o1)c1cccs1 | > 4 mM (inactive)
CN1CCC(NC(=O)c2cccnc2)CC1 | > 4 mM (inactive)
CSc1n[nH]c(NCc2cccs2)n1 | > 4 mM (inactive)
OC1CCCN(Cc2ccccc2)C1 (stereo not drawn) | > 4 mM (inactive)

SMILES | Kd
CC(=O)c1cc2c(cc1O)OC(C)(C)C=C2 | > 4 mM (inactive)
CS(=O)(=O)c1ccc2nc(N)sc2c1 | > 4 mM (inactive)
O=C(Nc1ccon1)c1cccc(C(F)(F)F)c1 | > 4 mM (inactive)
CNC(=O)CC1Sc2ccccc2NC1=O (stereo not drawn) | > 4 mM (inactive)
Cc1cc(=O)n2[nH]c(N)nc2n1 | > 4 mM (inactive)
O=C(O)CCC1=C2c3ccccc3CCN2C(=O)CC1 | > 4 mM (inactive)
O=C1CC(c2ccccc2)n2ncnc2N1 (stereo not drawn) | > 4 mM (inactive)
O=C(Oc1ccc2c(c1)CCC2)N1CCOCC1 | > 4 mM (inactive)
CC1=C2C(=CO[C@H](C)[C@H]2C)C(=O)C(C(=O)O)=C1O | > 4 mM (inactive)
CCn1c(C)c(C(C)=O)c(N2CCOCC2)nc1=S | > 4 mM (inactive)
COc1ccc(Cl)c(S(=O)(=O)N2CCCC2)c1 | > 4 mM (inactive)
Nc1cc2ccccc2cn1 | > 4 mM (inactive)
c1n[nH]cc1-c1cn[nH]c1 | > 4 mM (inactive)
Cc1ccc(S(=O)(=O)CC(=O)N2CCCC2)cc1 | > 4 mM (inactive)
NC(=O)CN1CC(=O)NC(=O)C1 | > 4 mM (inactive)
Cn1ccc(C(=O)NC(=S)NN2CCOCC2)n1 | > 4 mM (inactive)
Cc1cc(NC(=O)CS(=O)(=O)c2ccccc2)no1 | > 4 mM (inactive)
Cc1nc(-c2cccc(N)c2)cs1 | > 4 mM (inactive)
O=C(NCCO)c1cc2ccccc2c(=O)s1 | > 4 mM (inactive)
O=C(Nn1cnnc1)c1ccccc1Cl | > 4 mM (inactive)
CCC(CO)NC(=O)c1snnc1C (stereo not drawn) | > 4 mM (inactive)
COc1ccc(C(=O)CC(=O)O)c2c1C=CC(C)(C)O2 | > 4 mM (inactive)
CN(C)C(=O)CCNS(=O)(=O)c1ccccc1 | > 4 mM (inactive)

Source: PubChem BioAssay AID1549 (Sanford-Burnham Center for Chemical Genomics, 2009)
